Experimental data from patent publication US4528133A, “Biologically active tripeptide and tetrapeptide alkylamides, and method for the preparation thereof” (SPOFA, spojene podniky pro zdravotnickou vyrobu, priority 1982, dated 1985).
Read-outs that look alike come from different tables or passages of the source. Where a SMILES comes first, the peptide text is derived from it. The star is where a group is joined. Undecanoyl = CCCCCCCCCCC(=O)*; Cbz = O=C(OCc1ccccc1)*; Butyryl = CCCC(=O)*; NHiBu = CC(C)CN*; NHPr = CCCN*

Tests used:
[1] = target: pancreatic elastase (UniProt P00772); experiment: Inhibition of pancreatic elastase (PE), Ki with synthetic nitroanilide substrates; format: biochemical
pancreatic elastase, sequence (P00772 27-266): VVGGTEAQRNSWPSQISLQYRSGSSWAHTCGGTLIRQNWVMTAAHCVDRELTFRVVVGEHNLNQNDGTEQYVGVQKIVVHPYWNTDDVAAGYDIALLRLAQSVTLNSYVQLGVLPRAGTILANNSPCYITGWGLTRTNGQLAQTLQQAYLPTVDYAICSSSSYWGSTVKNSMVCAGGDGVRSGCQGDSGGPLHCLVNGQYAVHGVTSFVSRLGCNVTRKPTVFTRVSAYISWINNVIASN

[2] = target: T1, leucocytal elastase (Homo sapiens, UniProt P08246); experiment: Inhibition of leucocytal elastase (LE), Ki with synthetic nitroanilide substrate; format: biochemical; conditions: substrate Glt-(Ala)3-Val-Nan; for Ki: read-out: Inhibition constant Ki, LE, Glt--(Ala)3--Val--Nan
T1 sequence (P08246 30-267): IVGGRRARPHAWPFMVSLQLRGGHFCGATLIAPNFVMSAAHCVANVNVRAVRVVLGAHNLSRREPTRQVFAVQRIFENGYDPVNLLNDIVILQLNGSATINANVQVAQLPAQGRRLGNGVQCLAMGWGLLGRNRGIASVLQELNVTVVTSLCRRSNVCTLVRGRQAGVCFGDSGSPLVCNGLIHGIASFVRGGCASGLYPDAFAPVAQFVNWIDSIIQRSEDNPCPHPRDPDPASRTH

[3] = substrate Glt-(Ala)4-Nan, read-out: Inhibition constant Ki, PE, Glt--(Ala)4--Nan
[4] = substrate Suc-(Ala)4-Nan, read-out: Inhibition constant Ki, PE, Suc--(Ala)4--Nan

SMILES	Ki [1, 3] [µM]	Ki [1, 4] [µM]	Ki [2] [µM]	Inhibition constant Ki, LE, Glt--(Ala)3--Val--Nan [2]
CCNC(=O)[C@H](C)NC(=O)[C@H](C)NC(=O)[C@@H]1CCCN1C(=O)[C@H](CC(=O)O)NC(C)=O [Ac--Asp--Pro--Ala--Ala--NH--Et, N^α -Acetylaspartyl-prolyl-alanyl-alanine ethylamide] (Ac-DPAA-NHEt)	34	25	1000	
CCCC(=O)N[C@@H](CC(=O)O)C(=O)N[C@@H](C)C(=O)N[C@@H](C)C(=O)N1CCC[C@H]1C(=O)NCC(C)C [Btr--Asp--Ala--Ala--Pro--NH--iBu, N^α -Butyrylaspartyl-alanyl-alanyl-proline isobutylamide] (Butyryl-DAAP-NHiBu)	120	120	136	
CCCCCCCCCC=CCC(CC(=O)O)C(=O)N[C@@H](C)C(=O)N[C@@H](C)C(=O)N[C@@H](C)C(=O)NCC(C)C (some centres unmarked) [Dde--Ala--Ala--Ala--NH--iBu]	93	99	515	
CCCCCCCCCC=CCC(CC(=O)O)C(=O)N[C@@H](C)C(=O)N[C@@H](C)C(=O)N[C@@H](C)C(=O)NCC (some centres unmarked) [Dde--Ala--Ala--Ala--NH--Et, N-(2-Dodecenylsuccinyl)alanyl-alanyl-alanine ethylamide]	1.8	2.5		no inhibition
CCCNC(=O)[C@@H]1CCCN1C(=O)[C@H](C)NC(=O)[C@H](C)NC(=O)[C@H](CCC(=O)O)NC(=O)CCC [Btr--Glu--Ala--Ala--Pro--NH--Pr] (Butyryl-EAAP-NHPr)	193	178	180	

Second part, the molecule after the results:

Ki [1, 3] [µM]	Ki [1, 4] [µM]	Ki [2] [µM]	Inhibition constant Ki, LE, Glt--(Ala)3--Val--Nan [2]	SMILES
173	28	720		CCNC(=O)[C@H](C)NC(=O)[C@H](C)NC(=O)[C@H](C)NC(=O)[C@H](CCC(=O)O)NC(=O)OCc1ccccc1 [Z--Glu--Ala--Ala--Ala--NH--Et] (Cbz-EAAA-NHEt)
5.4		12		CCCCCCCCCCC(=O)N[C@@H](CC(=O)O)C(=O)N[C@@H](C)C(=O)N[C@@H](C)C(=O)N1CCC[C@H]1C(=O)NCC [UDA--Asp--Ala--Ala--Pro--NH--Et, N^α -Undecanoylaspartyl-alanyl-alanyl-proline ethylamide] (Undecanoyl-DAAP-NHEt)
0.6	0.5	100		CCCCCCCCCC=CCC(CC(=O)O)C(=O)N[C@@H](C)C(=O)N[C@@H](C)C(=O)N1CCC[C@H]1C(=O)NCCC (some centres unmarked) [Dde--Ala--Ala--Pro--NH--Pr, N-(2-Dodecenylsuccinyl)alanyl-alanyl-proline propylamide]
